According to patent US20060069123A1, “Substituted dipiperidine CCR2 antagonists” (priority 2004, published 2006):

Each compound was assayed against T1, CCR2 (Homo sapiens, UniProt P41597) (assay: not given). Details: not given.
T1 sequence (P41597 1-360 isoform P41597-2): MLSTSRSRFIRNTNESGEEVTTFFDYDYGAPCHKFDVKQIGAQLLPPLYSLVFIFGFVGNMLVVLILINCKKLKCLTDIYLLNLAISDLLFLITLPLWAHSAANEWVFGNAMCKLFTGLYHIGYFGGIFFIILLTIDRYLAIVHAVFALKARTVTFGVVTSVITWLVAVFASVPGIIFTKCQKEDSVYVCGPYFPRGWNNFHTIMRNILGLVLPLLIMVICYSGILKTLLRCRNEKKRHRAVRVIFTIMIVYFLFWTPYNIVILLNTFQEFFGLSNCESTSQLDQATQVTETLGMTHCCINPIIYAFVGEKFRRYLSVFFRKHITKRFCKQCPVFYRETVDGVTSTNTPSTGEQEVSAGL

| Structure (SMILES) | IC50 [nM] |
| --- | --- |
| COC(=O)c1ccc(C2CCN(C(C(=O)O)C3CCN(C(=O)/C=C/c4cc(F)cc(F)c4)CC3)CC2)cc1 (stereo not drawn) [Cpd 145, 4-[1-(carboxy-{1-[(2E)-3-(3,5-difluoro-phenyl)-acryloyl]-piperidin-4-yl}-methyl)-piperidin-4-yl]-benzoic acid methyl ester] | 5850 |
| O=C(CC1CCN(C(C(=O)O)C2CCN(C(=O)/C=C/c3cc(F)cc(F)c3)CC2)CC1)NCc1ccccc1 (stereo not drawn) [Cpd 148, [4-(benzylcarbamoyl-methyl)-piperidin-1-yl]-{1-[(2E)-3-(3,5-difluoro-phenyl)-acryloyl]-piperidin-4-yl}-acetic acid] | 8800 |
| O=C(CC1CCN(C(C(=O)O)C2CCN(C(=O)/C=C/c3cc(F)c(F)c(F)c3)CC2)CC1)NCc1ccccc1 (stereo not drawn) [Cpd 149] | 16600 |
| O=C(O)C(C1CCN(C(=O)/C=C/c2cc(F)c(F)c(F)c2)CC1)N1CCC(c2cc[nH]c2)CC1 (stereo not drawn) [Cpd 150, [4-(1H-pyrrol-3-yl)-piperidin-1-yl]-{1-[(2E)-3-(3,4,5-trifluoro-phenyl)-acryloyl]-piperidin-4-yl}-acetic acid] | 1600 |
| CCOC(=O)C(C1CCN(C(=O)/C=C/c2cc(F)c(F)c(F)c2)CC1)N1CCC(c2c[nH]c3ncccc23)CC1 (stereo not drawn) [Cpd 152, [4-(1H-pyrrolo[2,3-b]pyridin-3-yl)-piperidin-1-yl]-{1-[(2E)-3-(3,4,5-trifluoro-phenyl)-acryloyl]-piperidin-4-yl}-acetic acid ethyl ester] | 1900 |
| O=C(O)C(C1CCN(C(=O)/C=C/c2cc(F)cc(F)c2)CC1)N1CCC(c2n[nH]c3ccccc23)CC1 (stereo not drawn) [Cpd 177, {1-[(2E)-3-(3,5-difluoro-phenyl)-acryloyl]-piperidin-4-yl}-[4-(1H-indazol-3-yl)-piperidin-1-yl]-acetic acid] | 3000 |
| O=C(/C=C/c1cc(F)cc(F)c1)N1CCC(C(CO)N2CCC(c3nccs3)CC2)CC1 (stereo not drawn) [Cpd 194, (2E)-3-(3,5-difluoro-phenyl)-1-{4-[2-hydroxy-1-(4-thiazol-2-yl-piperidin-1-yl)-ethyl]-piperidin-1-yl}-propenone] | 2300 |
| O=C(/C=C/c1cc(F)c(F)c(F)c1)N1CCC(C(CO)N2CCC(c3nccs3)CC2)CC1 (stereo not drawn) [Cpd 195] | 3300 |
| O=C(/C=C/c1ccc(Cl)c(Cl)c1)N1CCC(C(CO)N2CCC(c3nccs3)CC2)CC1 (stereo not drawn) [Cpd 196] | 5700 |
| COc1cccc(C2CCN(C(CO)C3CCN(C(=O)/C=C/c4cc(F)cc(F)c4)CC3)CC2)c1 (stereo not drawn) [Cpd 197] | 1200 |
| O=C(/C=C/c1cc(F)cc(F)c1)N1CCC(C(CO)N2CCC(c3ccccn3)CC2)CC1 (stereo not drawn) [Cpd 200] | 2000 |
| CS(=O)(=O)Nc1ccc(C2CCN(C(C(=O)O)C3CCN(C(=O)/C=C/c4cc(F)c(F)c(F)c4)CC3)CC2)cc1 (stereo not drawn) [Cpd 206, [4-(4-methanesulfonylamino-phenyl)-piperidin-1-yl]-{1-[(2E)-3-(3,4,5-trifluoro-phenyl)-acryloyl]-piperidin-4-yl}-acetic acid] | 2000 |
| CS(=O)(=O)Nc1ccc(C2CCN(C(CO)C3CCN(C(=O)/C=C/c4ccc(Cl)c(Cl)c4)CC3)CC2)cc1 (stereo not drawn) [Cpd 210, N-{4-[1-(1-{1-[(2E)-3-(3,4-dichloro-phenyl)-acryloyl]-piperidin-4-yl}-2-hydroxy-ethyl)-piperidin-4-yl]-phenyl}-methanesulfonamide] | 5000 |
| CC(=O)OCC(C1CCN(C(=O)OC(C)(C)C)CC1)N1CCC(c2c[nH]c3ccccc23)CC1 (stereo not drawn) [Cpd 234, 4-{2-acetoxy-1-[4-(1H-indol-3-yl)-piperidin-1-yl]-ethyl}-piperidine-1-carboxylic acid tert-butyl ester] | 11200 |

Next, values leading:

| IC50 [nM] | Structure (SMILES) |
| --- | --- |
| 410 | O=CNCC(C1CCN(C(=O)/C=C/c2cc(F)cc(F)c2)CC1)N1CCC(c2c[nH]c3ccccc23)CC1 (stereo not drawn) [Cpd 221] |
| 680 | O=CNCC(C1CCN(C(=O)/C=C/c2ccc(Cl)c(Cl)c2)CC1)N1CCC(c2c[nH]c3ccccc23)CC1 (stereo not drawn) [Cpd 222] |
| 4100 | Cc1cccc(/C=C/C(=O)N2CCC(C(CNC=O)N3CCC(c4c[nH]c5ccccc45)CC3)CC2)c1 (stereo not drawn) [Cpd 223] |
| 1300 | O=CNCC(C1CCN(C(=O)/C=C/c2ccsc2)CC1)N1CCC(c2c[nH]c3ccccc23)CC1 (stereo not drawn) [Cpd 225] |
| 2100 | O=CNCC(C1CCN(C(=O)Nc2ccc(Cl)c(Cl)c2)CC1)N1CCC(c2c[nH]c3ccccc23)CC1 (stereo not drawn) [Cpd 226] |
| 2400 | CCNC(=O)NCC(C1CCN(C(=O)/C=C/c2cc(F)c(F)c(F)c2)CC1)N1CCC(c2c[nH]c3ccccc23)CC1 (stereo not drawn) [Cpd 228] |
| 1700 | CCNC(=O)NCC(C1CCN(C(=O)/C=C/c2cc(F)cc(F)c2)CC1)N1CCC(c2c[nH]c3ccccc23)CC1 (stereo not drawn) [Cpd 229] |
| 2100 | CCNC(=O)NCC(C1CCN(C(=O)/C=C/c2ccc(Cl)c(Cl)c2)CC1)N1CCC(c2c[nH]c3ccccc23)CC1 (stereo not drawn) [Cpd 230] |
| 4600 | CCNC(=O)NCC(C1CCN(C(=O)/C=C/c2cccc(C)c2)CC1)N1CCC(c2c[nH]c3ccccc23)CC1 (stereo not drawn) [Cpd 231] |
| 4000 | CCNC(=O)NCC(C1CCN(C(=O)/C=C/c2cccc(C(F)(F)F)c2)CC1)N1CCC(c2c[nH]c3ccccc23)CC1 (stereo not drawn) [Cpd 232] |
| 2400 | COC(=O)NCC(C1CCN(C(=O)/C=C/c2cc(F)c(F)c(F)c2)CC1)N1CCC(c2c[nH]c3ccccc23)CC1 (stereo not drawn) [Cpd 238, (2-[4-(1H-indol-3-yl)-piperidin-1-yl]-2-{1-[(2E)-3-(3,4,5-trifluoro-phenyl)-acryloyl]-piperidin-4-yl}-ethyl)-carbamic acid methyl ester] |
| 3000 | COC(=O)NCC(C1CCN(C(=O)/C=C/c2cc(F)cc(F)c2)CC1)N1CCC(c2c[nH]c3ccccc23)CC1 (stereo not drawn) [Cpd 239] |
| 4600 | COC(=O)NCC(C1CCN(C(=O)/C=C/c2ccc(Cl)c(Cl)c2)CC1)N1CCC(c2c[nH]c3ccccc23)CC1 (stereo not drawn) [Cpd 240] |
| 1900 | O=C(/C=C/c1cc(F)c(F)c(F)c1)N1CCC(C(CO)N2CCC(c3coc4ncccc34)CC2)CC1 (stereo not drawn) [Cpd 248, (2E)-1-{4-[1-(4-furo[2,3-b]pyridin-3-yl-piperidin-1-yl)-2-hydroxy-ethyl]-piperidin-1-yl}-3-(3,4,5-trifluoro-phenyl)-propenone] |
| 20 | O=C(/C=C/c1cc(F)cc(F)c1)N1CCC(C(CO)N2CCC(c3ccc(Cl)cc3)CC2)CC1 (stereo not drawn) [Cpd 249, (2E)-1-(4-{1-[4-(4-chloro-phenyl)-piperidin-1-yl]-2-hydroxy-ethyl}-piperidin-1-yl)-3-(3,5-difluoro-phenyl)-propenone] |
| 2900 | COC(=O)OCC(C1CCN(C(=O)/C=C/c2cc(F)cc(F)c2)CC1)N1CCC(c2ccc(Cl)cc2)CC1 (stereo not drawn) [Cpd 250, carbonic acid 2-[4-(4-chloro-phenyl)-piperidin-1-yl]-2-{1-[(2E)-3-(3,5-difluoro-phenyl)-acryloyl]-piperidin-4-yl}-ethyl ester methyl ester] |
| 5800 | CN(C)CC(=O)NCC(C1CCN(C(=O)/C=C/c2cc(F)cc(F)c2)CC1)N1CCC(c2c[nH]c3ccccc23)CC1 (stereo not drawn) [Cpd 252] |
| 2400 | COCC(C1CCN(C(=O)/C=C/c2cc(F)cc(F)c2)CC1)N1CCC(c2ccc(OC)cc2)CC1 (stereo not drawn) [Cpd 255, (2E)-3-(3,5-difluoro-phenyl)-1-(4-{2-methoxy-1-[4-(4-methoxy-phenyl)-piperidin-1-yl]-ethyl}-piperidin-1-yl)-propenone] |

Same assay, conditions: read-out: Inhibition of MCP-1 Binding IC50; 125I labeled MCP-1 binding to CCR2, THP-1 cells

| IC50 [nM] | Structure (SMILES) |
| --- | --- |
| 1600 | COc1ccc(C2CCN(C(CO)C3CCN(C(=O)/C=C/c4cc(F)c(F)cc4F)CC3)CC2)cc1 (stereo not drawn) [Cpd 140, (2E)-1-(4-{2-hydroxy-1-[4-(4-methoxy-phenyl)-piperidin-1-yl]-ethyl}-piperidin-1-yl)-3-(2,4,5-trifluoro-phenyl)-propenone] |

Same assay, conditions: read-out: Inhibition of MCP-1 Binding, percent inhibition

| inhibition at 25 µM [%] | Structure (SMILES) |
| --- | --- |
| 52 | CS(=O)(=O)Nc1ccc(C2CCN(C(CO)C3CCN(C(=O)/C=C/c4cc(F)c(F)c(F)c4)CC3)CC2)cc1 (stereo not drawn) [Cpd 209, N-{4-[1-(2-hydroxy-1-{1-[(2E)-3-(3,4,5-trifluoro-phenyl)-acryloyl]-piperidin-4-yl}-ethyl)-piperidin-4-yl]-phenyl}-methanesulfonamide] |
| 58 | O=C(C1CC1c1ccc(Cl)c(Cl)c1)N1CCC(C(CO)N2CCC(c3c[nH]c4ccccc34)CC2)CC1 (stereo not drawn) [Cpd 212, [2-(3,4-dichloro-phenyl)-cyclopropyl]-(4-{2-hydroxy-1-[4-(1H-indol-3-yl)-piperidin-1-yl]-ethyl}-piperidin-1-yl)-methanone] |
| 54 | O=CNCC(C1CCN(C(=O)/C=C/c2cccc(C(F)(F)F)c2)CC1)N1CCC(c2c[nH]c3ccccc23)CC1 (stereo not drawn) [Cpd 224] |
| 58 | COC(=O)NCC(C1CCN(C(=O)/C=C/c2cccc(C)c2)CC1)N1CCC(c2c[nH]c3ccccc23)CC1 (stereo not drawn) [Cpd 241] |
| 53 | O=C(/C=C/c1ccc(C(F)(F)F)cc1)N1CCC(C(CCl)N2CCC(c3ccc(Cl)cc3)CC2)CC1 (stereo not drawn) [Cpd 247, (2E)-1-(4-{2-chloro-1-[4-(4-chloro-phenyl)-piperidin-1-yl]-ethyl}-piperidin-1-yl)-3-(4-trifluoromethyl-phenyl)-propenone] |

Each compound was assayed on THP-1 cells (assay: MCP-1 Induced Chemotaxis in THP-1 Cells). Details: Homo sapiens; THP-1 cells, MCP-1 0.01 μg/mL, 3 hours; read-out: Inhibition of MCP-1 Induced Chemotaxis IC50.
Type: cell-based
Description: MCP-1 Induced Chemotaxis in THP-1 Cells
MCP-1 induced chemotaxis was run in a 24-well chemotaxis chamber. MCP-1 (0.01 μg/mL) was added to the lower chamber and 100 μL of THP-1 cells (1×10^7 cell/mL) was added to the top chamber. Varying concentrations of test compound were added to the top and bottom chambers. Cells were allowed to chemotax for 3 hours at 37° C. and 5% CO2. An aliquot of the cells that had migrated to the bottom chamber was taken and counted then compared to vehicle.

| IC50 [nM] | Structure (SMILES) |
| --- | --- |
| 10 | O=C(O)C(C1CCN(C(=O)/C=C/c2cc(F)cc(F)c2)CC1)N1CCC(c2c[nH]c3ccc(F)cc23)CC1 (stereo not drawn) [Cpd 8, {1-[(2E)-3-(3,5-difluoro-phenyl)-acryloyl]-piperidin-4-yl}-[4-(5-fluoro-1H-indol-3-yl)-piperidin-1-yl]-acetic acid] |
